In patent US12351574B2, “Selective ligands for modulation of GIRK channels” (Northeastern University, priority 2018, dated 2025):

How the values were obtained:
[1] = cardiovascular radiotelemetry in freely moving rats; type: in vivo, rat; conditions: 30 mg/kg
Experimental: Cardiovascular experiments: Radiotelemetry probes [Cat. no. HD-S11, Data Sciences International, St. Paul, MN, United States] were surgically implanted into the peritoneal cavity and sutured to the muscle wall in order to assess general motor activity and temperature. A pressure transducer was implanted into the femoral artery to assess cardiovascular responses [i.e., mean arterial blood pressure (MAP) and heart rate (HR)]. Animals were injected with selected compounds following a 10 min baseline period and data points were analayzed between 20 min and 60 min after injection. This allowed us to investigate ligand effects without confounding effects of animal handling or the injection itself and to allow the ligand to cross the blood-brain barrier.

GIRK1-S65A with GIRK4 = target: T1, GIRK1-S65A with GIRK4 (Homo sapiens, UniProt P48544+P48549, S65A); assay: 5-ptaseOCRL current inhibition, GIRK1/4 channels containing GIRK1-S65A subunits; type: cell-based
T1 construct: expressed in transfected cells; host or cells: HEK293-T cells
T1 sequence (P48549 1-501 S65A): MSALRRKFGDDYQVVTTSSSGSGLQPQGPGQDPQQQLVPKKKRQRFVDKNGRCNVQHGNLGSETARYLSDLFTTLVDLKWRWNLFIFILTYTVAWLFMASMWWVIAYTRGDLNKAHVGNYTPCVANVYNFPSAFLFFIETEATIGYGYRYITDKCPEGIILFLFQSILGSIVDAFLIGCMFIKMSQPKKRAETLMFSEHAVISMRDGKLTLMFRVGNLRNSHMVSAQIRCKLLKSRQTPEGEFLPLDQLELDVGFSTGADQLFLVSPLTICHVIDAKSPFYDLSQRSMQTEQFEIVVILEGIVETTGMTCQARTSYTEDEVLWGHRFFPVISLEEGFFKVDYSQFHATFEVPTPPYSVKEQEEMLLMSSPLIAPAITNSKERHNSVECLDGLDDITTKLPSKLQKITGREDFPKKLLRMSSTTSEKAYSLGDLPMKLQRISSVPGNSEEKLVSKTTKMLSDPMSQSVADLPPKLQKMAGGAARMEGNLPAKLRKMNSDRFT
T1 sequence (P48544 1-419): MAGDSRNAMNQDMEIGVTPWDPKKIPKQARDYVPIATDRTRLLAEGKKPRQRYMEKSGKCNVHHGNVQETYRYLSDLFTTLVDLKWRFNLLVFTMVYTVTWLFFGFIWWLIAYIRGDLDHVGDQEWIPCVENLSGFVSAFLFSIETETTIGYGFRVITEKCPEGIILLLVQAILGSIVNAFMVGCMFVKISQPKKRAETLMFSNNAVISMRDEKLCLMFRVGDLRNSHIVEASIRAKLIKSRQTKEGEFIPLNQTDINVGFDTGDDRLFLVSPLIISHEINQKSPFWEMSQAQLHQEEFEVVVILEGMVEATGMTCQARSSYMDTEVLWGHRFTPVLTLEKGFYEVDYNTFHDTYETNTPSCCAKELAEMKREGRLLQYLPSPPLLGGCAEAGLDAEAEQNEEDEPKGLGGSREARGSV
Description: To identify changes in specific channel residue interactions with PIP2 upon ligand binding, the inventors carried out Principal Component Analysis (PCA) in the presence and absence of ML297 and GAT1508. The PCA analysis implicated changes in the slide (or interfacial) helix interactions with PIP2 upon ligand binding. Polar interactions could be formed between GIRK2^FD(Y76) and GIRK4^FD(Y71) with the P(4,5) of PIP2 when ML297 was bound to the same subunit (FIG. 39 top, FIG. 40). In contrast, when GAT1508 was bound this interaction was retained by GIRK2^FD but not GIRK4^FD (FIG. 39 bottom, FIG. 40). The corresponding GIRK1(S65) residue (FIG. 41, highlighted with vertical rectangle) could be serving the same role in stabilizing the phosphoinositol headgroup for interactions with non-ligand binding subunits. As polar residues, both Ser and Tyr could form H-bond interactions with PIP2. […]
Patch-clamp recording: Whole-cell currents were recorded with an Axopatch 200B amplifier (Molecular Devices) controlled via a USB-interface (National Instruments) using WinWCP software (University of Strathclyde). […] The barium-sensitive component of the current, observed when cells were perfused with the high-K^+ buffer, was analyzed and was determined by perfusing 5 mM BaCl2 in the high-K^+ buffer at the end of each experiment. […]

SMILES: Cc1cc(NC(=O)Nc2ccc(Br)s2)n(-c2ccccc2)n1 [GAT1508, 1-(5-bromothiophen-2-yl)-3-(3-methyl-1-phenyl-1H-pyrazol-5-yl)urea]
- change in heart rate (HR) (in words) [1]: no significant changes
- change in locomotor activity (LA) (in words) [1]: no significant changes
- change in mean arterial pressure (MAP) (in words) [1]: no significant changes
- protection of current from 5-ptaseOCRL (in words) (GIRK1-S65A with GIRK4): not protected

SMILES: Cc1cc(NC(=O)Nc2ccc(F)c(F)c2)n(-c2ccccc2)n1 [ML297, reference compound]
- change in body temperature (BT) (in words) [1]: without affecting significantly
- change in heart rate (HR) (in words) [1]: paradoxical long-lasting increases
- change in locomotor activity (LA) (in words) [1]: without affecting significantly
- change in mean arterial pressure (MAP) (in words) [1]: paradoxical long-lasting increases
- protection of current from 5-ptaseOCRL (in words) (GIRK1-S65A with GIRK4): not protected
